Consider 20 compounds from US7511145B2 (Genelabs Technologies, Inc., priority 2003, dated 2009).

For this assay, the target named is T1, HCV-NS5b (Hepatitis C virus genotype 1b, UniProt Q9WMX2).
T1 construct: (His)6 (C); made in house; host or cells: XL-1 cells (E. coli), IPTG-inducible plasmid, nickel-NTA purification
Briefly: HCV-NS5b enzyme assay (incorporation of radiolabeled UTP). It is filed as biochemical. Conditions: for inhibition at 33 µM: enzyme inhibition at compound concentration of 33 uM; for inhibition at 100 µM: read-out: % inh@100, enzyme inhibition at compound concentration of 100 uM. The method, boiled down: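 His6-tagged NS5b lacking the C-terminal 21 residues, expressed in XL-1 and Ni-NTA purified. Reaction at pH 7.5 with 5 mM MgCl2, 10 μM each NTP including [3H]-UTP and biotinylated HCV heteropolymeric template, 2 h at 37° C; SPA read-out; % inhibition at 100 and 33 uM versus no-compound control, background subtracted.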

With `O=C(O)c1ccc2c(c1)nc(-c1ccc3nc(-c4ccc[nH]4)ccc3c1)n2C1CCCCC1` [Compound 450, 1-Cyclohexyl-2-[2-(1H-pyrrol-2-yl)-quinolin-6-yl]-1H-benzoimidazole-5-carboxylic acid], the inhibition at 33 µM was 96.5% and the inhibition at 100 µM came to 99.7%.
As for `O=C(O)c1ccc2c(c1)nc(-c1ccc3nc(-c4ccccc4)cc(NCCCn4ccnc4)c3c1)n2C1CCCCC1` [Compound 451, 1-cyclohexyl-2-[4-(3-imidazol-1-yl-propylamino)-2-phenyl-quinolin-6-yl]-1H-benzoimidazole-5-carboxylic acid], the inhibition at 33 µM is 76.3% and the inhibition at 100 µM was determined as 95.6%.
For `COc1cc(O)c(-c2ccc3cc(-c4nc5cc(C(=O)O)ccc5n4C4CCCCC4)ccc3n2)c(OC)c1` [Compound 452, 1-cyclohexyl-2-[2-(2-hydroxy-4,6-dimethoxy-phenyl)-quinolin-6-yl]-1H-benzoimidazole-5-carboxylic acid], the inhibition at 33 µM turned out to be 102% and the inhibition at 100 µM turned out to be 102%.
As for `COc1ccc(-c2ccco2)c(-c2ccc3cc(-c4nc5cc(C(=O)O)ccc5n4C4CCCCC4)ccc3n2)c1` [Compound 454, 1-cyclohexyl-2-[2-(2-furan-2-yl-5-methoxy-phenyl)-quinolin-6-yl]-1H-benzoimidazole-5-carboxylic acid], the inhibition at 33 µM is 98.3% and the inhibition at 100 µM was found to be 101%.
On to `COc1ccc(-c2ccc(F)cc2)c(-c2ccc3cc(-c4nc5cc(C(=O)O)ccc5n4C4CCCCC4)ccc3n2)c1` [Compound 455, 1-Cyclohexyl-2-[2-(4′-fluoro-4-methoxy-biphen-2-yl)-quinolin-6-yl]-1H-benzoimidazole-5-carboxylic acid], for which the inhibition at 33 µM amounted to 100% and the inhibition at 100 µM came out at 99.8%.
Taken in the same sequence, the figures for `CCOc1ccc(-c2ccc(OC)cc2-c2ccc3cc(-c4nc5cc(C(=O)O)ccc5n4C4CCCCC4)ccc3n2)cc1` [Compound 456, 1-cyclohexyl-2-[2-(4′-ethoxy-4-methoxy-biphen-2-yl)-quinolin-6-yl]-1H-benzoimidazole-5-carboxylic acid] were 100% and 99.7%.
For `O=C(O)c1ccc2c(c1)nc(-c1ccc3nc(C(c4ccccc4)c4ccccc4)ccc3c1)n2C1CCCCC1` [Compound 457, 2-(2-benzhydryl-quinolin-6-yl)-1-cyclohexyl-1H-benzoimidazole-5-carboxylic acid], the inhibition at 33 µM turned out to be 98.2% and the inhibition at 100 µM amounted to 98.3%.
On to `CN(C)c1ccc(-c2nc3ccc(-c4nc5cc(C(=O)O)ccc5n4C4CCCCC4)cc3nc2-c2ccc(N(C)C)cc2)cc1` [Compound 458, 2-[2,3-Bis-(4-dimethylaminotphenyl)quinoxalin-6-yl]-1-cyclohexyl-1H-benzimidazole-5-carboxylic acid], for which the inhibition at 33 µM is 100% and the inhibition at 100 µM turned out to be 104%.
Take `O=C(O)c1ccc2c(c1)nc(-c1ccc3nc(-c4ccc5c(c4)CCCC5)ccc3c1)n2C1CCCCC1` [Compound 459, 1-cyclohexyl-2-[2-(5,6,7,8-tetrahydro-naphthalen-2-yl)-quinolin-6-yl]-1H-benzoimidazole-5-carboxylic acid]: the inhibition at 33 µM is 99.5% and the inhibition at 100 µM came out at 99.8%.
On to `O=C(O)c1ccc2c(c1)nc(-c1ccc3nc(-c4c(O)ccc5ccccc45)ccc3c1)n2C1CCCCC1` [Compound 460, 1-cyclohexyl-2-[2-(2-hydroxy-naphthalen-1-yl)-quinolin-6-yl]-1H-benzoimidazole-5-carboxylic acid], for which the inhibition at 33 µM stood at 101% and the inhibition at 100 µM came to 102%.
In the case of `COCCOc1ccc(-c2ccccc2)c(-c2ccc3cc(-c4nc5cc(C(=O)O)ccc5n4C4CCCCC4)ccc3n2)c1` [Compound 461, 1-Cyclohexyl-2-{2-[4-(2-methoxy-ethoxy)-biphen-2-yl]-quinolin-6-yl}-1H-benzoimidazole-5-carboxylic acid], the inhibition at 33 µM was found to be 97.9% and the inhibition at 100 µM turned out to be 96.7%.
`Cc1c(OCc2ccccc2)ccc(-c2ccc3cc(-c4nc5cc(C(=O)O)ccc5n4C4CCCCC4)ccc3n2)c1O` [Compound 462, 2-[2-(4-benzyloxy-2-hydroxy-3-methyl-phenyl)-quinolin-6-yl]-1-cyclohexyl-1H-benzoimidazole-5-carboxylic acid]: the inhibition at 33 µM was found to be 98.2% and the inhibition at 100 µM was 101%.
Regarding `Cn1c2ccc(Cl)cc2c2cc(-c3ccc4cc(-c5nc6cc(C(=O)O)ccc6n5C5CCCCC5)ccc4n3)ccc21` [Compound 463, 2-[2-(6-chloro-9-methyl-9H-carbazol-3-yl)-quinolin-6-yl]-1-cyclohexyl-1H-benzoimidazole-5-carboxylic acid], the inhibition at 33 µM amounted to 96% and the inhibition at 100 µM turned out to be 97.2%.
As for `Cc1nn(-c2ccccc2)c(C)c1-c1ccc2cc(-c3nc4cc(C(=O)O)ccc4n3C3CCCCC3)ccc2n1` [Compound 464, 1-cyclohexyl-2-[2-(3,5-dimethyl-1-phenyl-1H-pyrazol-4-yl)-quinolin-6-yl]-1H-benzoimidazole-5-carboxylic acid], the inhibition at 33 µM stood at 99.7% and the inhibition at 100 µM stood at 100%.
On the same counts, the results for `O=C1COc2ccc(-c3ccc4cc(-c5nc6cc(C(=O)O)ccc6n5C5CCCCC5)ccc4n3)cc2N1` [Compound 465, 1-cyclohexyl-2-[2-(3-oxo-3,4-dihydro-2H-benzo[1,4]oxazin-6-yl)-quinolin-6-yl]-1H-benzoimidazole-5-carboxylic acid] are 98.8% and 101%.
Taken in the same sequence, the figures for `NNc1cc(-c2ccccc2)nc2ccc(-c3nc4cc(C(=O)O)ccc4n3C3CCCCC3)cc12` [Compound 466, 1-Cyclohexyl-2-(4-hydrazino-2-phenyl-quinolin-6-yl)-1H-benzoimidazole-5-carboxylic acid] were 92.9% and 100%.
In the case of `O=C(O)c1ccc2c(c1)nc(-c1ccc3nc(-c4ccccc4)cc(Sc4ccccc4)c3c1)n2C1CCCCC1` [Compound 467, 1-Cyclohexyl-2-(2-phenyl-4-phenylsulfanyl-quinolin-6-yl)-1H-benzoimidazole-5-carboxylic acid], the inhibition at 33 µM is 96.3% and the inhibition at 100 µM was 100%.
Take `COc1ccc(-c2ccc(OC)cc2-c2ccc3cc(-c4nc5cc(C(=O)O)ccc5n4C4CCCCC4)ccc3n2)cc1` [Compound 468, 1-cyclohexyl-2-[2-(4,4′-dimethoxy-biphen-2-yl)-quinolin-6-yl]-1H-benzoimidazole-5-carboxylic acid]: the inhibition at 33 µM stood at 99.3% and the inhibition at 100 µM stood at 99.1%.
Taken in the same sequence, the figures for `COc1ccc(-c2ccc(O)cc2)c(-c2ccc3cc(-c4nc5cc(C(=O)O)ccc5n4C4CCCCC4)ccc3n2)c1` [Compound 469, 1-cyclohexyl-2-[2-(4′-hydroxy-4-methoxy-biphen-2-yl)-quinolin-6-yl]-1H-benzoimidazole-5-carboxylic acid] were 94.2% and 98.2%.
As to `COc1ccc(-c2cccs2)c(-c2ccc3cc(-c4nc5cc(C(=O)O)ccc5n4C4CCCCC4)ccc3n2)c1` [Compound 470, 1-cyclohexyl-2-[2-(5-methoxy-2-thiophen-2-yl-phenyl)-quinolin-6-yl]-1H-benzoimidazole-5-carboxylic acid], the inhibition at 33 µM is 101% and the inhibition at 100 µM came to 99.4%.
